“Also recorded” adds a separate entry of the source. Read-outs that look alike come from different tables or passages of the source.
What was measured:
[1] = test system: MHV (strain MHV-A59); conditions: L929 cells
[2] = target: SARS-CoV E protein (Severe acute respiratory syndrome coronavirus, UniProt P59637); assay type: cell-based
[3] = test system: MHV (strain MHV-A59); assay: microbe, parasite or virus in culture; conditions: Murine coronavirus, L929, read-out: Percent reduction in Plaque number/# experiments
[4] = target: Vpu protein (Human immunodeficiency virus type 1 group M subtype B, UniProt P05919); conditions: for Vpu Inhibition (score/# of times tested): halo of growth score between zero and six, XL1-blue E. coli with pPL-Vpu, no adenine, 37° C.
[5] = target: 229E-CoV E-protein (Human coronavirus 229E, UniProt P19741); assay: Bacterial bio-assay for 229E-CoV E-protein; conditions: halo of growth score; E. coli expressing E protein at 37° C.
[6] = test system: EAV (strain Bucyrus); assay: EAV plaque reduction assay in BHK-21 cells; assay type: cell-based; conditions: Equine arteritis virus; EAV plaques in BHK-21 cells
Description: To determine the antiviral activity of compounds against EAV replication (strain Bucyrus; ATCC VR-796), an assay measuring reduction in the number of plaques formed in monolayers of EAV infected BHK-21 cells (ATCC CCL-10) was developed: […] Plates were subsequently incubated at 37° C. […] Plaques were counted in all wells and the percentage reduction in plaque number compared to solvent control was calculated. Measurements were performed in duplicate to quadruplicate wells.

[7] = test system: human coronavirus OC43; assay: microbe, parasite or virus in culture; assay type: cell-based; conditions: Betacoronavirus 1, OC43, MRC5, 120 h, MRC-5 cells, 5 days post infection
[8] = test system: HIV; assay type: cell-based; conditions: for At least 1x log reduction seen in p24 assay?: Table 19b, yes/no
[9] = test system: porcine respiratory coronavirus (PRCV) strain AR310; assay: PRCV plaque assay in ST cells; assay type: cell-based; conditions: Alphacoronavirus 1; PRCV plaques in ST cells
[10] = test system: bovine coronavirus (BCV); assay: BCV plaque assay in MDBK cells; assay type: cell-based; conditions: Betacoronavirus 1; BCV plaques in MDBK cells
[11] = target: Dengue virus M protein C-terminal peptide (Dengue virus type 1, UniProt P33478); assay: Dengue virus M protein C-terminal peptide ion channel in lipid bilayers; assay type: biochemical; conditions: final concentration of HMA 100 μM in cis chamber
Description: The dengue virus M protein C-terminal peptide (DMVC) was dissolved in 2,2,2-trifluorethanol (TFE) at 0.05 mg/ml to 1 mg/ml. […] Channel activity was seen within 15-30 min.
Solutions of 50 mM HMA were prepared by first making a 500 mM solution in DMSO. This solution was further diluted to 50 mM HMA using 0.1 M HCl. 2 μl of the 50 mM HMA was added to the cis chamber after channel activity was seen. The cis chamber contained 1 ml of solution making the final concentration of HMA 100 μM.

[12] = target: SARS E protein ion channel (Severe acute respiratory syndrome coronavirus, UniProt P59637); assay type: biochemical, SARS-CoV
[13] = target: 229E E protein ion channel (Human coronavirus 229E, UniProt P19741); assay: 229E E protein ion channel in planar lipid bilayers; assay type: biochemical; conditions: 100 μM added to the cis chamber; FIG. 10
Description: The 229E E synthetic peptide was dissolved in 2,2,2-trifluorethanol (TFE) at 0.05 mg/ml to 1 mg/ml. […] Ionic currents, indicating channel activity in the bilayer, were typically detected within 15-30 min. After channels were detected the holding potential across the bilayer was varied between −100 mV and +100 mV to characterise the size and polarity of current flow and enable the reversal potential to be determined.
To test compounds for their ability to block or otherwise inhibit the ion channel formed by 229E E protein, small aliquots of solutions containing the compounds were added to the aqueous solutions bathing planar lipids in which the peptide channel activity had been reconstituted and the effect of the compound addition on the ionic currents was recorded and measured.
Compound stock solutions were typically prepared at 500 mM in DMSO. This solution was further diluted to 50 mM, or lower concentration in 50% DMSO/50% methanol and 2 μl of the appropriately diluted compound was added to the cis and/or trans chambers to yield the desired final concentration.

[14] = test system: SARS-CoV (Hong Kong strain); assay type: cell-based, SARS coronavirus; conditions: for decrease in virus titre: 10 uM; for Titre (% control): 48 hours; for Average TCID50 (×10^6): 48 hours post infection
[15] = test system: Dengue 1 strain Hawaii; assay: Dengue cytoproliferation assay in LLC-MK2 cells (Alamar Blue); assay type: cell-based, Dengue virus; conditions: 7 days
[16] = Table 19a, rank among 12 compounds, 1 = highest score

| SMILES | Percent reduction in Plaque number/# experiments ([1]; 1 uM) | Percent reduction in Plaque number/# experiments ([1]; 10 uM) | SARS E protein Inhibition (score/# of times tested) [2] | Vpu Inhibition (score/# of times tested) [4] | 229E E protein Inhibition (score) [5] [score] | IC50 [6] [µM] | inhibition at 2.5 µM [7] [%] | inhibition at 1 µM [3] [%] | Percent reduction in Plaque number/# experiments ([1]; 20 uM) | At least 1x log reduction seen in p24 assay? [8] | EC50 [9] [µM] | Bacterial assay rank order [4, 16] | Bacterial assay rank order ([4]; Table 19b) | Vpu Bacterial score ([4]; Table 19b) | EC50 [10] [µM] | % Reduction of average current by 100 μM [12] [%] | also measured |
| --- | --- | --- | --- | --- | --- | --- | --- | --- | --- | --- | --- | --- | --- | --- | --- | --- | --- |
| N=C(N)NC(=O)Cc1cccc2ccccc12 [2-(1-napthyl)acetoylguanidine] | 11/1% | 02/1% | 1.50/1 score | 1.56/2 score | 0.8 |  |  |  |  |  |  |  |  |  |  |  | inhibition at 20 µM [3]: -19% |
| CC(C)(C)c1ccccc1/C=C/C(=O)NC(=N)N [2-t-butylcinnamoylguanidine] | 37/1% | 98/2% | 1.86/1 score | 2.13/2 score | 3.9 | 1 | 4 |  |  |  |  |  |  |  |  |  |  |
| N=C(N)NC(=O)/C=C/c1cccc(C2=CCCCC2)c1 [3-(cyclohex-1-en-1-yl)cinnamoylguanidine] |  | 2/2% | 3.75/1 score | 2.5/2 score | 2.4 |  |  | -19 |  |  |  |  |  |  |  |  |  |
| NC(N)=NC(=O)c1nc(Cl)c(N2CCCCCC2)nc1N [5-(N,N-hexamethylene)amiloride] | 13/2% | 89/1% | 1.2/3 score | 1.9/31 score | 1.9 | 7.5 | 30 |  | 84/2% | no | 0.06 | 10 | 10 | 1.9 | 9 | 91 ± 7 | Percent of Positive Control ([8]; Drug Conc. 0.625 μM): 30%; Percent of Positive Control ([8]; Drug Conc. 1.25 μM): 19%; Percent of Positive Control ([8]; Drug Conc. 2.5 μM): 50%; Percent of Positive Control ([8]; Drug Conc. 5 μM): 21%; Percent of Positive Control ([8]; Drug Conc. 10 μM): 6%; bacterial growth around site of drug application (FIG. 5) ([4]; 3 μl drop, minimal medium lacking adenine, 37° C. 48 hr): halo of bacterial growth; ion channel activity of the Dengue virus M protein C-terminal peptide (in words) [11]: Inhibits Ion Channel Activity |
| N=C(N)NC(=O)/C=C/c1ccco1 [(2-Furanacryloyl)guanidine] |  | 63/2% | 0.82/2 score | 0.94/2 score |  |  |  | -3 | 67/2% |  |  |  |  |  |  |  |  |
| N=C(N)NC(=O)/C=C/c1cccc(Br)c1 [(3-Bromocinnamoyl)guanidine] | 39/3% | 90/3% | 3.15/27 score | 4.3/24 score | 1.7 | 10 | 100 |  | 95/2% | yes | 11.2 | 1 | 1 | 4.3 | 3 | 87 ± 11 | Percent of Positive Control ([8]; Drug Conc. 0.625 μM): 116%; Percent of Positive Control ([8]; Drug Conc. 1.25 μM): 59%; Percent of Positive Control ([8]; Drug Conc. 2.5 μM): 9%; Percent of Positive Control ([8]; Drug Conc. 5 μM): 1%; Percent of Positive Control ([8]; Drug Conc. 10 μM): 3% |
| N=C(NC(=O)CCc1ccccc1)NC(=O)CCc1ccccc1 [N,N′-Bis(3-phenylpropanoyl)guanidine, N,N-Bis(3-phenylpropanoyl)guanidine] |  | 30/4% |  | 0.1/2 score | 0.3 |  |  | -8 | 41/3% |  |  |  |  |  |  |  |  |
| N=C(NC(=O)c1ccc2cc(O)ccc2c1)Nc1ccccc1 [N-(6-Hydroxy-2-napthoyl)-N′-phenylguanidine] |  | 39/1% | 1.35/3 score | 2.06/2 score |  |  |  | -5 | 43/1% |  |  |  |  |  |  |  |  |
| NC(N)=NC(=O)/C=C/c1ccccc1 [cinnamoylguanidine] | 52/7% | 88/8% | 0.69/3 score | 2.96/12 score | 1.3 |  | 57 |  | 97/8% | yes | 0.08 | 4 | 4 | 3.0 | 42 |  | current flow through the 229E E ion channel (in words) [13]: greatly reduced current flow; E protein ion channel activity (in words) [12]: inhibited; also recorded: significantly reduced; SARS E protein N-terminal peptide channel (in words) [12]: blocked; channels formed by full-length E protein (in words) [12]: blocked; reduction of average current across the bilayer [12]: about 4 fold; average current across the bilayer (in words) ([12]; 100 μM): reduced to baseline; decrease in virus titre [14]: approximately 80%; Titre (% control) ([14]; Compound Concentration 2 uM): 82 % control; Average TCID50 (×10^6) ([14]; Compound Concentration 2 uM): 4.4 ×10^6; Titre (% control) ([14]; Compound Concentration 10 uM): 24 % control; Average TCID50 (×10^6) ([14]; Compound Concentration 10 uM): 1.3 ×10^6; Antiviral Percent of Negative Control ([15]; Drug Conc. 0.625 μM): 76.6%; Antiviral Percent of Negative Control ([15]; Drug Conc. 1.25 μM): 72.6%; Antiviral Percent of Negative Control ([15]; Drug Conc. 2.5 μM): 58.3%; Antiviral Percent of Negative Control ([15]; Drug Conc. 5 μM): 38.6%; Antiviral Percent of Negative Control ([15]; Drug Conc. 10 μM): 17.1% |
| N=C(N)NC(=O)/C=C/c1cccc2ccccc12 [trans-3-(1-napthyl)acryloylguanidine] | 34/3% | 86/3% | 3.38/2 score | 2.9/3 score | 3.7 | 7.5 | 100 |  | 95/2% | yes | 19.1 | 5.5 | 5.5 | 2.9 | 13 | 66 ± 2 | reduction in virus titre ([14]; 2 μM): approximately 50%; decrease in virus titre [14]: approximately 80%; Titre (% control) ([14]; Compound Concentration 2 uM): 46 % control; Average TCID50 (×10^6) ([14]; Compound Concentration 2 uM): 2.45 ×10^6; Titre (% control) ([14]; Compound Concentration 10 uM): 22 % control; Average TCID50 (×10^6) ([14]; Compound Concentration 10 uM): 1.15 ×10^6; Antiviral Percent of Negative Control ([15]; Drug Conc. 0.625 μM): 77.7%; Antiviral Percent of Negative Control ([15]; Drug Conc. 1.25 μM): 73.7%; Antiviral Percent of Negative Control ([15]; Drug Conc. 2.5 μM): 38.7%; Antiviral Percent of Negative Control ([15]; Drug Conc. 5 μM): 12.4%; Antiviral Percent of Negative Control ([15]; Drug Conc. 10 μM): 6.8% |

Source: patent publication US11192863B2, “Antiviral compounds and methods” (Biotron Limited, priority 2003, dated 2021)
